Tests used:
[1] = molecular target: T1, Aminopeptidase N (Sus scrofa, UniProt P15145); assay: Inhibition of pig kidney microsomal APN
T1 sequence (P15145 whole entry): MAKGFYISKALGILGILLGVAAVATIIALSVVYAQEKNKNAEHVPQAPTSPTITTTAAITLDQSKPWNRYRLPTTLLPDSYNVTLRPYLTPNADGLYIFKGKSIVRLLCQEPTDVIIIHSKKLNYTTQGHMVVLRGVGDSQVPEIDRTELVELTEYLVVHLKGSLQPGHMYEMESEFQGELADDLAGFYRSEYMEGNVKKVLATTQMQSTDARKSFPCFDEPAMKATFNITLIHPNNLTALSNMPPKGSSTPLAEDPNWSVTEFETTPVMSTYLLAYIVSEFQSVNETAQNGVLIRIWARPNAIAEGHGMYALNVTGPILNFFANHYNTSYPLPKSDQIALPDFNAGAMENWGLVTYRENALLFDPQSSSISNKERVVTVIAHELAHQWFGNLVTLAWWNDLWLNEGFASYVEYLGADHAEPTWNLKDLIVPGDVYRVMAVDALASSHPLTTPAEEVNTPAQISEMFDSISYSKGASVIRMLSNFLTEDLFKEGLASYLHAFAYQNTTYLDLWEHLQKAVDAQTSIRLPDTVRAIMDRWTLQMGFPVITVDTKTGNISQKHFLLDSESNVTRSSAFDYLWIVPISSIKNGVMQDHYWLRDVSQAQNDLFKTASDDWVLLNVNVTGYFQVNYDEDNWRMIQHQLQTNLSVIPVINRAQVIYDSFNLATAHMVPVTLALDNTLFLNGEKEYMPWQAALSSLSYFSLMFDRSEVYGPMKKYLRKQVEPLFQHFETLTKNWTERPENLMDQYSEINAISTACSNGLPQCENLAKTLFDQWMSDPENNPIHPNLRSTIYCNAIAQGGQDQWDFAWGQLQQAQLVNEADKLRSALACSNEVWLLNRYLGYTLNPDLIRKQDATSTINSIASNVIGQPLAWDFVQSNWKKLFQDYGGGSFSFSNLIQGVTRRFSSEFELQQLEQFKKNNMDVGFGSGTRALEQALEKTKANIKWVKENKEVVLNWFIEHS

[2] = system: HL-60; assay: Cytotoxicity against human HL60 cells after 48 hrs by MTT assay; assay type: functional, cell-based; conditions: HL-60, 48 h

Row | IC50 [1] [µM] | Structure (SMILES) | IC50 [2] [µM]
1 | 181 | CC(C)C[C@H](NC(=O)N[C@@H](Cc1ccccc1)C(=O)NC[C@H](N)Cc1ccccc1)C(=O)O | 
2 | 693 | N[C@@H](CNC(=O)[C@H](Cc1ccccc1)NC(=O)CCCCl)Cc1ccccc1 | 
3 | 16.5 | CSCC[C@H](NC(=O)N[C@@H](CS)C(=O)NC[C@H](N)Cc1ccccc1)C(=O)O | 1180
4 | 1390 | N[C@@H](CNC(=O)[C@H](Cc1ccccc1)NC(=O)c1ccc([N+](=O)[O-])cc1)Cc1ccccc1 | 
5 | 89.5 | NCCCC[C@H](NC(=O)N[C@@H](Cc1ccccc1)C(=O)NC[C@H](N)Cc1ccccc1)C(=O)O | 1490
6 | 8.8 | CSCC[C@H](NC(=O)N[C@@H](Cc1ccccc1)C(=O)NC[C@H](N)Cc1ccccc1)C(=O)O | 270
7 | 33.2 | NCCC[C@H](NC(=O)N[C@@H](CS)C(=O)NC[C@H](N)Cc1ccccc1)C(=O)O | 
8 | 9.8 | N[C@@H](CNC(=O)[C@H](CS)NC(=O)N[C@@H](Cc1ccccc1)C(=O)O)Cc1ccccc1 | 1060
9 | 174 | N[C@@H](CNC(=O)[C@H](CS)NC(=O)NCC(=O)O)Cc1ccccc1 | 
10 | 202 | NCCCCCC(=O)N[C@@H](CS)C(=O)NC[C@H](N)Cc1ccccc1 | 
11 | 58.5 | CC(C)[C@H](NC(=O)N[C@@H](Cc1ccccc1)C(=O)NC[C@H](N)Cc1ccccc1)C(=O)O | 
12 | 277 | N[C@@H](CNC(=O)[C@H](Cc1ccccc1)NC(=O)c1cc([N+](=O)[O-])cc([N+](=O)[O-])c1)Cc1ccccc1 | 
13 | 2260 | N[C@@H](CNC(=O)[C@H](Cc1ccccc1)NC(=O)c1ccc(Cl)cc1Cl)Cc1ccccc1 | 
14 | 174 | COc1ccc(C(=O)N[C@@H](Cc2ccccc2)C(=O)NC[C@H](N)Cc2ccccc2)cc1 | 
15 | 107 | CC(C)C[C@H](NC(=O)N[C@@H](Cc1ccc(O)cc1)C(=O)O)C(=O)NC[C@H](N)Cc1ccccc1 | 
16 | 49.2 | N[C@@H](CNC(=O)[C@H](Cc1ccccc1)NC(=O)N[C@H](CS)C(=O)O)Cc1ccccc1 | 

Row | IC50 [1] [µM] | Structure (SMILES) | IC50 [2] [µM]
17 | 3240 | CC(C)C[C@H](NC(=O)NCC(=O)O)C(=O)NC[C@H](N)Cc1ccccc1 | 
18 | 1050 | N[C@@H](CNC(=O)[C@H](CS)NC(=O)c1ccc(Cl)cc1Cl)Cc1ccccc1 | 
19 | 148 | CC[C@H](C)[C@H](NC(=O)N[C@@H](CC(C)C)C(=O)NC[C@H](N)Cc1ccccc1)C(=O)O | 
20 | 522 | CC(C)C[C@H](NC(=O)N[C@@H](C)C(=O)O)C(=O)NC[C@H](N)Cc1ccccc1 | 
21 | 1460 | CC(C)C[C@H](NC(=O)CCCCCN)C(=O)NC[C@H](N)Cc1ccccc1 | 
22 | 1540 | NCCCCCC(=O)N[C@@H](Cc1ccccc1)C(=O)NC[C@H](N)Cc1ccccc1 | 
23 | 8.6 | NCCCC[C@H](NC(=O)N[C@@H](CS)C(=O)NC[C@H](N)Cc1ccccc1)C(=O)O | 290
24 | 45 | CC(C)C[C@H](NC(=O)N[C@@H](CS)C(=O)NC[C@H](N)Cc1ccccc1)C(=O)O | 2660
25 | 10.3 | N[C@@H](CNC(=O)[C@H](CS)NC(=O)N[C@H](CS)C(=O)O)Cc1ccccc1 | 540
26 | 366 | N[C@@H](CNC(=O)[C@H](Cc1ccccc1)NC(=O)CCc1ccccc1)Cc1ccccc1 | 
27 | 158 | CC[C@H](C)[C@H](NC(=O)N[C@@H](Cc1ccccc1)C(=O)NC[C@H](N)Cc1ccccc1)C(=O)O | 
28 | 14.8 | CC[C@H](C)[C@H](NC(=O)N[C@@H](CS)C(=O)NC[C@H](N)Cc1ccccc1)C(=O)O | 
29 | 142 | CC(C)C[C@H](NC(=O)N[C@@H](CC(C)C)C(=O)NC[C@H](N)Cc1ccccc1)C(=O)O | 
30 | 30.4 | CSCC[C@H](NC(=O)N[C@@H](CC(C)C)C(=O)NC[C@H](N)Cc1ccccc1)C(=O)O | 
31 | 58.8 | CC(C)[C@H](NC(=O)N[C@@H](CS)C(=O)NC[C@H](N)Cc1ccccc1)C(=O)O | 

Reference: ChEMBL document CHEMBL1153399, “Design, synthesis and SAR studies of tripeptide analogs with the scaffold 3-phenylpropane-1,2-diamine as aminopeptidase N/CD13 inhibitors” (Bioorg Med Chem, 2009)
